Laboratory results: ChEMBL document CHEMBL3885861, “Open TG-GATES”

Species on record: Rattus norvegicus
Test: Open TG-GATES - Regimen: Single
Type: toxicity, organism-based, Sprague-Dawley
Design: regimen Single, gender Male, age 6 weeks
Conditions: in vivo, po, route gavage; for APTT / Bas / Eos / Fbg / Hb / Ht / Lym / MCH / MCHC / MCV / Mono / Neu / PT / Plat / RBC / Ret / WBC: tissue Blood; for LIVER: tissue Liver; for A/G / ALP / ALT / AST / BUN / CRE / Ca / Cl / DBIL / GLC / IP / K / LDH / Na / PL / RALB / TBIL / TC / TG / TP / gamma-GTP: tissue Plasma
[1] = 15 mg/kg, 3 h, dose level Middle
[2] = 15 mg/kg, 6 h, dose level Middle
[3] = 15 mg/kg, 9 h, dose level Middle
[4] = 15 mg/kg, 24 h, dose level Middle
[5] = 50 mg/kg, 24 h, dose level High

## C=C(C)[C@H]1Cc2c(ccc3c2O[C@@H]2COc4cc(OC)c(OC)cc4[C@@H]2C3=O)O1 [ROTENONE]
[1]
  TERMINAL_BW: 196.9 g
  APTT: 16.9 s
  Bas: 0%
  Eos: 0.8%
  Fbg: 214 mg/dL
  Hb: 13.1 g/dL
  Ht: 40.1%
  Lym: 63.8%
  MCH: 20.7 pg
  MCHC: 32.6%
  MCV: 63.4 fL
  Mono: 13.6%
  Neu: 22%
  PT: 12.4 s
  Plat: 122.6 x10_4/uL
  RBC: 634 x10_4/ul
  Ret: 8.9%
  WBC: 89.2 x10_2/uL
  LIVER: 8.7 g
  A/G: 2.4
  ALP: 1502.2 IU/L
  ALT: 37.8 IU/L
  AST: 71.4 IU/L
  BUN: 14.2 mg/dL
  CRE: 0.4 mg/dL
  Ca: 10.9 mg/dL
  Cl: 104.2 meq/L
  DBIL: 0.01 mg/dL
  GLC: 191.6 mg/dL
  IP: 8.8 mg/dL
  K: 4 meq/L
  LDH: 106.6 IU/L
  Na: 141 meq/L
  PL: 126.8 mg/dL
  RALB: 3.9 g/dL
  TBIL: 0.038 mg/dL
  TC: 82 mg/dL
  TG: 37.4 mg/dL
  TP: 5.5 g/dL
  gamma-GTP: 0.8 IU/L
[2]
  TERMINAL_BW: 198.2 g
  APTT: 16.4 s
  Bas: 0%
  Eos: 0.8%
  Fbg: 209.6 mg/dL
  Hb: 13.2 g/dL
  Ht: 40.1%
  Lym: 75.8%
  MCH: 21 pg
  MCHC: 32.9%
  MCV: 63.9 fL
  Mono: 5.4%
  Neu: 18.2%
  PT: 12.4 s
  Plat: 127.4 x10_4/uL
  RBC: 628.4 x10_4/ul
  Ret: 8.2%
  WBC: 100.4 x10_2/uL
  LIVER: 8.7 g
  A/G: 2.3
  ALP: 1188.8 IU/L
  ALT: 33.6 IU/L
  AST: 68 IU/L
  BUN: 11.8 mg/dL
  CRE: 0.4 mg/dL
  Ca: 11 mg/dL
  Cl: 103.8 meq/L
  DBIL: 0.01 mg/dL
  GLC: 194 mg/dL
  IP: 9.7 mg/dL
  K: 4 meq/L
  LDH: 84.2 IU/L
  Na: 140.6 meq/L
  PL: 139.2 mg/dL
  RALB: 3.7 g/dL
  TBIL: 0.044 mg/dL
  TC: 79.8 mg/dL
  TG: 74.6 mg/dL
  TP: 5.4 g/dL
  gamma-GTP: 0.4 IU/L
[3]
  TERMINAL_BW: 198.7 g
  APTT: 16.4 s
  Bas: 0%
  Eos: 0.2%
  Fbg: 217 mg/dL
  Hb: 12.7 g/dL
  Ht: 38.7%
  Lym: 79.2%
  MCH: 21 pg
  MCHC: 32.9%
  MCV: 63.7 fL
  Mono: 6.8%
  Neu: 13.6%
  PT: 12.7 s
  Plat: 133.8 x10_4/uL
  RBC: 607.8 x10_4/ul
  Ret: 8.8%
  WBC: 91.4 x10_2/uL
  LIVER: 8.3 g
  A/G: 2.4
  ALP: 1265 IU/L
  ALT: 29.8 IU/L
  AST: 65.6 IU/L
  BUN: 10.4 mg/dL
  CRE: 0.4 mg/dL
  Ca: 11.4 mg/dL
  Cl: 104.2 meq/L
  DBIL: 0.01 mg/dL
  GLC: 186 mg/dL
  IP: 10 mg/dL
  K: 4.1 meq/L
  LDH: 103.8 IU/L
  Na: 139.8 meq/L
  PL: 132.2 mg/dL
  RALB: 3.7 g/dL
  TBIL: 0.044 mg/dL
  TC: 79.2 mg/dL
  TG: 40 mg/dL
  TP: 5.2 g/dL
  gamma-GTP: 1 IU/L
[4]
  TERMINAL_BW: 213.8 g
  APTT: 15.5 s
  Bas: 0%
  Eos: 0.8%
  Fbg: 216 mg/dL
  Hb: 12.8 g/dL
  Ht: 38.8%
  Lym: 78.6%
  MCH: 21.5 pg
  MCHC: 32.9%
  MCV: 65.3 fL
  Mono: 5.6%
  Neu: 15%
  PT: 11.8 s
  Plat: 113 x10_4/uL
  RBC: 595 x10_4/ul
  Ret: 8.1%
  WBC: 100 x10_2/uL
  LIVER: 11 g
  A/G: 2.6
  ALP: 1529.4 IU/L
  ALT: 36 IU/L
  AST: 67 IU/L
  BUN: 17.2 mg/dL
  CRE: 0.4 mg/dL
  Ca: 11.6 mg/dL
  Cl: 104.2 meq/L
  DBIL: 0.012 mg/dL
  GLC: 187 mg/dL
  IP: 7.4 mg/dL
  K: 4.4 meq/L
  LDH: 112.8 IU/L
  Na: 140.4 meq/L
  PL: 168.4 mg/dL
  RALB: 4 g/dL
  TBIL: 0.032 mg/dL
  TC: 88.8 mg/dL
  TG: 152 mg/dL
  TP: 5.6 g/dL
  gamma-GTP: 0.4 IU/L
50 mg/kg, 3 h, dose level High
  TERMINAL_BW: 195.9 g
  APTT: 15.9 s
  Bas: 0%
  Eos: 0.8%
  Fbg: 204.8 mg/dL
  Hb: 13.2 g/dL
  Ht: 40.1%
  Lym: 73.4%
  MCH: 20.7 pg
  MCHC: 32.8%
  MCV: 63.1 fL
  Mono: 9.2%
  Neu: 17.4%
  PT: 12.6 s
  Plat: 124.2 x10_4/uL
  RBC: 636.2 x10_4/ul
  Ret: 8.8%
  WBC: 89.8 x10_2/uL
  LIVER: 8.5 g
  A/G: 2.3
  ALP: 1894.6 IU/L
  ALT: 39 IU/L
  AST: 79.4 IU/L
  BUN: 13.8 mg/dL
  CRE: 0.4 mg/dL
  Ca: 11.1 mg/dL
  Cl: 103.6 meq/L
  DBIL: 0.008 mg/dL
  GLC: 182.2 mg/dL
  IP: 8.9 mg/dL
  K: 3.9 meq/L
  LDH: 92.6 IU/L
  Na: 140.6 meq/L
  PL: 123.2 mg/dL
  RALB: 3.7 g/dL
  TBIL: 0.036 mg/dL
  TC: 77.4 mg/dL
  TG: 49.4 mg/dL
  TP: 5.3 g/dL
  gamma-GTP: 1 IU/L
50 mg/kg, 6 h, dose level High
  TERMINAL_BW: 197.3 g
  APTT: 16.8 s
  Bas: 0%
  Eos: 0%
  Fbg: 213.4 mg/dL
  Hb: 13.3 g/dL
  Ht: 40.7%
  Lym: 77.8%
  MCH: 20.8 pg
  MCHC: 32.7%
  MCV: 63.7 fL
  Mono: 6.6%
  Neu: 15%
  PT: 12.6 s
  Plat: 136.6 x10_4/uL
  RBC: 638.2 x10_4/ul
  Ret: 9.1%
  WBC: 84.6 x10_2/uL
  LIVER: 8.2 g
  A/G: 2.3
  ALP: 1068.4 IU/L
  ALT: 41.2 IU/L
  AST: 75 IU/L
  BUN: 11.4 mg/dL
  CRE: 0.4 mg/dL
  Ca: 11.3 mg/dL
  Cl: 103.8 meq/L
  DBIL: 0.01 mg/dL
  GLC: 185.8 mg/dL
  IP: 9.9 mg/dL
  K: 3.9 meq/L
  LDH: 96 IU/L
  Na: 140.6 meq/L
  PL: 145.2 mg/dL
  RALB: 3.7 g/dL
  TBIL: 0.044 mg/dL
  TC: 84.8 mg/dL
  TG: 45.6 mg/dL
  TP: 5.4 g/dL
  gamma-GTP: 0.2 IU/L
50 mg/kg, 9 h, dose level High
  TERMINAL_BW: 196.2 g
  APTT: 16.7 s
  Bas: 0%
  Eos: 0.6%
  Fbg: 221.4 mg/dL
  Hb: 13 g/dL
  Ht: 39.5%
  Lym: 82.2%
  MCH: 21.4 pg
  MCHC: 33%
  MCV: 64.8 fL
  Mono: 4.6%
  Neu: 12.6%
  PT: 12.6 s
  Plat: 137 x10_4/uL
  RBC: 610 x10_4/ul
  Ret: 8.7%
  WBC: 86.6 x10_2/uL
  LIVER: 8 g
  A/G: 2.3
  ALP: 1128.2 IU/L
  ALT: 30.6 IU/L
  AST: 66.8 IU/L
  BUN: 11.8 mg/dL
  CRE: 0.4 mg/dL
  Ca: 11 mg/dL
  Cl: 104.2 meq/L
  DBIL: 0.01 mg/dL
  GLC: 171.2 mg/dL
  IP: 10.2 mg/dL
  K: 4.1 meq/L
  LDH: 105 IU/L
  Na: 139.6 meq/L
  PL: 135.8 mg/dL
  RALB: 3.8 g/dL
  TBIL: 0.048 mg/dL
  TC: 87.6 mg/dL
  TG: 34.8 mg/dL
  TP: 5.4 g/dL
  gamma-GTP: 1 IU/L
[5]
  TERMINAL_BW: 202.8 g
  APTT: 16.4 s
  Bas: 0%
  Eos: 0.8%
  Fbg: 198.6 mg/dL
  Hb: 13.3 g/dL
  Ht: 40.7%
  Lym: 83.8%
  MCH: 20.6 pg
  MCHC: 32.7%
  MCV: 63 fL
  Mono: 4.6%
  Neu: 10.8%
  PT: 12.4 s
  Plat: 128.6 x10_4/uL
  RBC: 648.4 x10_4/ul
  Ret: 7.3%
  WBC: 67.6 x10_2/uL
  LIVER: 8.4 g
  A/G: 2.5
  ALP: 1301.4 IU/L
  ALT: 25.8 IU/L
  AST: 61.4 IU/L
  BUN: 13.6 mg/dL
  CRE: 0.4 mg/dL
  Ca: 11.8 mg/dL
  Cl: 104 meq/L
  DBIL: 0.01 mg/dL
  GLC: 185.8 mg/dL
  IP: 8.3 mg/dL
  K: 4.1 meq/L
  LDH: 66.4 IU/L
  Na: 140.2 meq/L
  PL: 128 mg/dL
  RALB: 4 g/dL
  TBIL: 0.042 mg/dL
  TC: 74.2 mg/dL
  TG: 46.4 mg/dL
  TP: 5.5 g/dL
  gamma-GTP: 0.6 IU/L
